Here are results for 1 molecule from paper PMC5054527, “Mechanism of high affinity inhibition of the human urate transporter URAT1” (Scientific Reports, 2016).

Several values for one entry are separate records, joined by “and”; a condition that tells them apart may be missing. Equal entries are not always repeated.

The target of experiment [1] is T1, h-r TM1 chimera (rURAT1 residues 1–99 and hURAT residues 100–553) (UniProt Q3ZAV1+Q96S37).
T1 construct: a chimera consisting of rURAT1 residues 1–99 and hURAT residues 100–553 (h-r TM1); expressed in transfected cells; host or cells: HEK-293T
The experiment is described as follows: URAT1 uric acid transport activity assay. The class given is cell-based, human/rat. From the text: (§1) hURAT1 (GenBank BC053348.1) and rURAT1 (NCBI NM_001034943.1) genes were purchased from Origene Technologies, Inc. and subcloned into pCMV6/neo using NotI, creating pCMV6/neo-hURAT1 and pCMV6/neo-rURAT1. Mutants were produced by polymerase chain reaction (PCR) or site-directed mutagenesis using the QuikChange Lightning Multi Site-Directed Mutagenesis Kit (Agilent Technologies). […] Detailed methods are provided in Supplementary Methods, and primers are listed in Supplementary Table 1. […] Residues in rURAT1 and hOAT1 that correspond to the residues in hURAT1 were identified from aligned protein sequences (Supplementary Fig. 1)[50].
(§2) DNA (10 μg) was mixed with 30 μl of DreamFect Gold (Boca Scientific) in 2 ml OptiMem (Life Technologies). After 20 minutes, 18 ml of media containing 2 × 10^7 cells in suspension was added and mixed, and 200 μl per well were plated onto white clear-bottomed poly-D-lysine coated 96-well plates (BD Biosciences). The cells were assayed the following day.
(§3) Compounds were serially diluted into assay buffer and added to the cells for 5 minutes prior to addition of radiolabelled uric acid substrate. URAT1-expressing cells were incubated with 100 μM ^14C-uric acid for 10 minutes. […] Each treatment was measured in triplicate.
(§4) Unlabelled uric acid was prepared at a 20 mM stock just prior to use in a solution containing 20 mM dibasic potassium phosphate and 20 mM potassium hydroxide.
(§5) Nonlinear regression analyses using GraphPad Prism software were used to calculate the potency of URAT1 inhibitors (IC50 values) from log (inhibitor) versus response - variable slope (four parameters) equations. Statistical significance was assessed using Student’s unpaired t-tests.

The next experiment deals with T2, h-r TM9-N URAT1 chimera (Homo sapiens, UniProt Q96S37, A411S/A416P/L414V).
T2 construct: expressed in transfected cells; host or cells: HEK-293T
The experiment is described as follows: URAT1 uric acid transport activity assay. The class given is cell-based, human/rat. The conditions noted are these: HEPES pH 7.3, 100 μM 14C-uric acid.
Excerpt: as §1, §2, §3, §4, §5

The target of a further experiment is T3, h-r TM9-C URAT1 chimera (Homo sapiens, UniProt Q96S37, A432I/A436S/H428R/T424I).
T3 construct: expressed in transfected cells; host or cells: HEK-293T
The experiment is described as follows: URAT1 uric acid transport activity assay. To be noted: HEPES pH 7.3, 100 μM 14C-uric acid. The class given is cell-based, human/rat.
Excerpt: as §1, §2, §3, §4, §5

The target in the next experiment is T4, h-r TM8 URAT1 chimera (Homo sapiens, UniProt Q96S37, A392V/A396S/F384L/H402R/I390L/M383A/P407L/V387I).
T4 construct: expressed in transfected cells; host or cells: HEK-293T
The experiment is described as follows: URAT1 uric acid transport activity assay. The class given is cell-based, human/rat. The conditions noted are these: HEPES pH 7.3, 100 μM 14C-uric acid.
Excerpt: as §1, §2, §3, §4, §5

For the next experiment, the target named is T5, h-r TM5-C URAT1 chimera (Homo sapiens, UniProt Q96S37, A249G/A250S/G246V/H245Q).
T5 construct: expressed in transfected cells; host or cells: HEK-293T
The experiment is described as follows: URAT1 uric acid transport activity assay. The class given is cell-based, human/rat. The conditions noted are these: HEPES pH 7.3, 100 μM 14C-uric acid.
Excerpt: as §1, §2, §3, §4, §5

The target of another experiment is T6, h-r TM7 URAT1 chimera (Homo sapiens, UniProt Q96S37, C351F/F365Y/T354M).
T6 construct: expressed in transfected cells; host or cells: HEK-293T
The experiment is described as follows: URAT1 uric acid transport activity assay. The class given is cell-based, human/rat.
Excerpt: as §1, §2, §3, §4, §5

Experiment [2] addresses T7, r-h TM1 chimera (hURAT1 residues 1–99 and rURAT1 residues 100–553) (UniProt Q3ZAV1+Q96S37).
T7 construct: The chimera r-hTM1, consisting of hURAT1 residues 1–99 and rURAT1 residues 100–553; expressed in transfected cells; host or cells: HEK-293T
The experiment is described as follows: URAT1 uric acid transport activity assay. The conditions noted are these: HEPES pH 7.3, 100 μM 14C-uric acid. The class given is cell-based, human/rat.
Excerpt: as §1, §2, §3, §4, §5

Another experiment has as its target T8, h-r TM11 URAT1 chimera (Homo sapiens, UniProt Q96S37, I481M/M474V).
T8 construct: expressed in transfected cells; host or cells: HEK-293T
The experiment is described as follows: URAT1 uric acid transport activity assay. The class given is cell-based, human/rat.
Excerpt: as §1, §2, §3, §4, §5

A further experiment addresses T9, h-r TM10 URAT1 chimera (Homo sapiens, UniProt Q96S37, G444S/I452V/V445L/Y455F).
T9 construct: expressed in transfected cells; host or cells: HEK-293T
The experiment is described as follows: URAT1 uric acid transport activity assay. The class given is cell-based, human/rat. The conditions noted are these: HEPES pH 7.3, 100 μM 14C-uric acid.
Excerpt: as §1, §2, §3, §4, §5

The target in a further experiment is T10, h-r TM5-N URAT1 chimera (Homo sapiens, UniProt Q96S37, S238A/V233M).
T10 construct: expressed in transfected cells; host or cells: HEK-293T
The experiment is described as follows: URAT1 uric acid transport activity assay. The class given is cell-based, human/rat. The conditions noted are these: HEPES pH 7.3, 100 μM 14C-uric acid.
Excerpt: as §1, §2, §3, §4, §5

Another experiment addresses T11, h-r TM6 URAT1 chimera (Homo sapiens, UniProt Q96S37, C272F/L274V).
T11 construct: expressed in transfected cells; host or cells: HEK-293T
The experiment is described as follows: URAT1 uric acid transport activity assay. The class given is cell-based, human/rat. To be noted: HEPES pH 7.3, 100 μM 14C-uric acid.
Excerpt: as §1, §2, §3, §4, §5

In experiment [3] the target is T12, h-M474V hURAT1 point mutant (Homo sapiens, UniProt Q96S37, M474V).
T12 construct: expressed in transfected cells; host or cells: HEK-293T
The experiment is described as follows: URAT1 uric acid transport activity assay. The class given is cell-based. To be noted: HEPES pH 7.3, 100 μM 14C-uric acid.

Experiment [4] concerns the target T13, h-I481M hURAT1 point mutant (Homo sapiens, UniProt Q96S37, I481M).
T13 construct: expressed in transfected cells; host or cells: HEK-293T
The experiment is described as follows: URAT1 uric acid transport activity assay. The class given is cell-based.

In experiment [5] the target is T14, h-M25V hURAT1 point mutant (Homo sapiens, UniProt Q96S37, M25V).
T14 construct: expressed in transfected cells; host or cells: HEK-293T
The experiment is described as follows: URAT1 uric acid transport activity assay. The class given is cell-based.

In experiment [6] the target is T15, h-V26T hURAT1 point mutant (Homo sapiens, UniProt Q96S37, V26T).
T15 construct: expressed in transfected cells; host or cells: HEK-293T
The experiment is described as follows: URAT1 uric acid transport activity assay. The class given is cell-based. The conditions noted are these: HEPES pH 7.3, 100 μM 14C-uric acid.

The target in experiment [7] is T16, h-C32T hURAT1 point mutant (Homo sapiens, UniProt Q96S37, C32T).
T16 construct: expressed in transfected cells; host or cells: HEK-293T
The experiment is described as follows: URAT1 uric acid transport activity assay. The class given is cell-based. To be noted: HEPES pH 7.3, 100 μM 14C-uric acid.

The target of experiment [8] is h-r EC1,TM2-4 URAT1 chimera (Homo sapiens, UniProt Q96S37, A103T/A133T/A162V/A184S/A189I/A193M/A195T/A226S/A51V/A59S/A71V/D100E/E110D/E70D/F192L/F208S/G218A/H142Q/I126T/I75V/K134T/K145R/L174R/L206V/L64P/L67F/L99I/M183V/M186S/N136D/N82D/P101S/P165H/P69R/Q182L/R124H/R89L/S107N/S46H/S66D/S68G/T128R/T219S/V117E/V198L/Y152F). The experiment is described as follows: cell-based. To be noted: IC50 (uric acid transport), HEPES pH 7.3, 100 μM 14C-uric acid.
Excerpt: as §1
(§6) DNA (10 μg) was mixed with 30 μl of DreamFect Gold (Boca Scientific) in 2 ml OptiMem (Life Technologies). […]
(§7) Compounds were serially diluted into assay buffer and added to the cells for 5 minutes prior to addition of radiolabelled uric acid substrate. […] Each treatment was measured in triplicate. […]
as §5

The target in a further experiment is h-r IC3 URAT1 chimera (Homo sapiens, UniProt Q96S37, F348L/G295S/G307R/G309K/G331N/I305V/K308R/L287I/L321R/L328P/M330G/M343T/P317V/P333A/P334G/Q297R/Q312A/R325Q/R342H/S329N/S336R/T289V/V311E/W294Q/W300Q). The experiment is described as follows: cell-based.
Excerpt: as §1, §6, §7, §5

Sequence of h-r EC1,TM2-4 URAT1 chimera (Q96S37 1-553 with the stated changes): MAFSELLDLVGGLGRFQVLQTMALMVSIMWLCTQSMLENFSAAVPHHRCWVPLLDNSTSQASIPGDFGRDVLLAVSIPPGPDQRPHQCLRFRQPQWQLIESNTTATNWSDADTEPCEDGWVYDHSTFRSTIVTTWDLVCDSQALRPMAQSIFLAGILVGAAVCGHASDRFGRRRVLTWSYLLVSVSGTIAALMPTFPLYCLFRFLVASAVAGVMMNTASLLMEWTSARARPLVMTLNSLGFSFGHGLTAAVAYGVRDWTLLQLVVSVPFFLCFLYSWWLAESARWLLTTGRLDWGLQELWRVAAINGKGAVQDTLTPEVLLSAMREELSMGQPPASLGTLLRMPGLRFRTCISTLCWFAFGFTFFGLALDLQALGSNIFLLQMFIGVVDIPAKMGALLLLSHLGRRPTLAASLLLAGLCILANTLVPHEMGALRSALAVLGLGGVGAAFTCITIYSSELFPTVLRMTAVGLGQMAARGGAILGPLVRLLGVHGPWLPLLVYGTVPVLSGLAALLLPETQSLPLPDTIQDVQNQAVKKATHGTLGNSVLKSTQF
T8 sequence (Q96S37 whole entry M474V/I481M): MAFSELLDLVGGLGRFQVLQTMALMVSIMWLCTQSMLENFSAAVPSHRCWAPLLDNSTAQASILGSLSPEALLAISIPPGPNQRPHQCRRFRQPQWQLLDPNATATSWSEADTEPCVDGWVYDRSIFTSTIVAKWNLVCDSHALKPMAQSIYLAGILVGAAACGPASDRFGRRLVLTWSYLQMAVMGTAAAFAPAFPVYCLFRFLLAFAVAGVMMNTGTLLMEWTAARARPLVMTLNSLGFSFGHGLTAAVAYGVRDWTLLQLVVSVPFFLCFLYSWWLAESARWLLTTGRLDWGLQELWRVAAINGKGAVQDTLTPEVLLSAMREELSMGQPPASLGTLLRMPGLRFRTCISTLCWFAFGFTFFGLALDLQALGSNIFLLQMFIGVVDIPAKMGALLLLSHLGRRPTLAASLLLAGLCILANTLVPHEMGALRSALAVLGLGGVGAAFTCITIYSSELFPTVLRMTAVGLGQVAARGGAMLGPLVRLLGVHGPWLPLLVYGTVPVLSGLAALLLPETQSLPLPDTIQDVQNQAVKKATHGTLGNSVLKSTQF
T6 sequence (Q96S37 whole entry C351F/T354M/F365Y): as the sequence (Q96S37 whole entry M474V/I481M) above, with C351F, T354M, F365Y, V474M, M481I counted along it
T1 sequence (Q3ZAV1 1-99, change not shown): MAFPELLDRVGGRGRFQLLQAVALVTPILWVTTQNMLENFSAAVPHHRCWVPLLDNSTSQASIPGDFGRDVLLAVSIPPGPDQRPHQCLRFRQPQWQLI
T1 sequence (Q96S37 100-553, change not shown): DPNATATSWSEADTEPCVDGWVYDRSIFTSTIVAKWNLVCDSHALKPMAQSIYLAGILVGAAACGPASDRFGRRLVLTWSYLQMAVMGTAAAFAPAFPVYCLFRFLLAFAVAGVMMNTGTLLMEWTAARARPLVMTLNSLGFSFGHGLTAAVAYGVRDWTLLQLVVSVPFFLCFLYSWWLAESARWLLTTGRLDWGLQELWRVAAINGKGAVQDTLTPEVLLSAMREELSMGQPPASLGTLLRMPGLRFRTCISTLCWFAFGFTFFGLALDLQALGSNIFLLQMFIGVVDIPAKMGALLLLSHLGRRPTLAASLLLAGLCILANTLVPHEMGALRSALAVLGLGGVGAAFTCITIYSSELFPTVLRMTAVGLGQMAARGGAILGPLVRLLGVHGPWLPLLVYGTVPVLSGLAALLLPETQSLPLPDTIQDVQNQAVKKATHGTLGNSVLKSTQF
T14 sequence (Q96S37 whole entry M25V): as the sequence (Q96S37 whole entry M474V/I481M) above, with M25V, V474M, M481I counted along it
T13 sequence (Q96S37 whole entry I481M): as the sequence (Q96S37 whole entry M474V/I481M) above, with V474M counted along it
Sequence of h-r IC3 URAT1 chimera (Q96S37 1-553 with the stated changes): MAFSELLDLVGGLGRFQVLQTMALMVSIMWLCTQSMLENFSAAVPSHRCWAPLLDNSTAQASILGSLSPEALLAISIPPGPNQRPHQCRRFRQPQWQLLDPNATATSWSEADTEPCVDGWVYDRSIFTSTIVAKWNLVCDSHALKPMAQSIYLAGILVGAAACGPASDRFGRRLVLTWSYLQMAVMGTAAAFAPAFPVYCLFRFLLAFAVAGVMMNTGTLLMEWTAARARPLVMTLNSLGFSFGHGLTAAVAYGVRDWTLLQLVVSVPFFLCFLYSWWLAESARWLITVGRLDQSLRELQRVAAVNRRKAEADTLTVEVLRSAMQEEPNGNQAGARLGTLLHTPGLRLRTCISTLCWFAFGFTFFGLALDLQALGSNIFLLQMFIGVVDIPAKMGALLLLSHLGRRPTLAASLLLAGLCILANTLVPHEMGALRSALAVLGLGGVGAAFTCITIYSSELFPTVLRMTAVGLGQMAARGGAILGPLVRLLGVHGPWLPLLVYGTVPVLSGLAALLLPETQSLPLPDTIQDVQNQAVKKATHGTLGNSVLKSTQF
T5 sequence (Q96S37 whole entry H245Q/G246V/A249G/A250S): as the sequence (Q96S37 whole entry M474V/I481M) above, with H245Q, G246V, A249G, A250S, V474M, M481I counted along it
T2 sequence (Q96S37 whole entry A411S/L414V/A416P): as the sequence (Q96S37 whole entry M474V/I481M) above, with A411S, L414V, A416P, V474M, M481I counted along it
T10 sequence (Q96S37 whole entry V233M/S238A): as the sequence (Q96S37 whole entry M474V/I481M) above, with V233M, S238A, V474M, M481I counted along it
T9 sequence (Q96S37 whole entry G444S/V445L/I452V/Y455F): as the sequence (Q96S37 whole entry M474V/I481M) above, with G444S, V445L, I452V, Y455F, V474M, M481I counted along it
T7 sequence (Q96S37 1-99, change not shown): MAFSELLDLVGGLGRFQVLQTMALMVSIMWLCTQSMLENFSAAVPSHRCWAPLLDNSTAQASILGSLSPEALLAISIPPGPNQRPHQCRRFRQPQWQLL
T7 sequence (Q3ZAV1 100-553, change not shown): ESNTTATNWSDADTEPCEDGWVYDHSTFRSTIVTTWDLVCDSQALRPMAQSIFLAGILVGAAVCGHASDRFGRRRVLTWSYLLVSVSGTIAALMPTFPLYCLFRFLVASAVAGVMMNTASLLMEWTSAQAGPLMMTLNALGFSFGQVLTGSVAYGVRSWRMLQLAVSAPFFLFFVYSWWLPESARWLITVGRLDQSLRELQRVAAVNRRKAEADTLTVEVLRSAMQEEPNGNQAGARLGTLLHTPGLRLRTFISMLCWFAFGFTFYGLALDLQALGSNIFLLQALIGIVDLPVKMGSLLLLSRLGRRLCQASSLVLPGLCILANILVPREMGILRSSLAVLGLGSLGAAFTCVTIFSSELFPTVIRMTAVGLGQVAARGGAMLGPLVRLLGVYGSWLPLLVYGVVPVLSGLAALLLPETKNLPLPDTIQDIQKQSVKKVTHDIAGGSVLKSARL
T12 sequence (Q96S37 whole entry M474V): as the sequence (Q96S37 whole entry M474V/I481M) above, with M481I counted along it
T11 sequence (Q96S37 whole entry C272F/L274V): as the sequence (Q96S37 whole entry M474V/I481M) above, with C272F, L274V, V474M, M481I counted along it
T16 sequence (Q96S37 whole entry C32T): as the sequence (Q96S37 whole entry M474V/I481M) above, with C32T, V474M, M481I counted along it
T3 sequence (Q96S37 whole entry T424I/H428R/A432I/A436S): as the sequence (Q96S37 whole entry M474V/I481M) above, with T424I, H428R, A432I, A436S, V474M, M481I counted along it
T15 sequence (Q96S37 whole entry V26T): as the sequence (Q96S37 whole entry M474V/I481M) above, with V26T, V474M, M481I counted along it
T4 sequence (Q96S37 whole entry M383A/F384L/V387I/I390L/A392V/A396S/H402R/P407L): as the sequence (Q96S37 whole entry M474V/I481M) above, with M383A, F384L, V387I, I390L, A392V, A396S, H402R, P407L, V474M, M481I counted along it

The term IC50 denotes the concentration at which inhibition is half-maximal. Lower therefore signals inhibition by little substance. Take `O=C1C(CC[S+]([O-])c2ccccc2)C(=O)N(c2ccccc2)N1c1ccccc1` (centres unmarked) [sulfinpyrazone]: the “fold reduced affinity of h-r TM1 compared to hURAT1” value in [1] (from IC50 values) worked out at 3 fold. The IC50 in experiment [1] (h-r TM1, HEPES pH 7.3, 100 μM 14C-uric acid) was determined as 93 ± 17 µM; at h-r TM9-N URAT1 chimera, 36 ± 17 µM; against h-r TM9-C URAT1 chimera it was 38 ± 11 µM; at h-r TM8 URAT1 chimera, 29 ± 13 µM; against h-r TM5-C URAT1 chimera it was 34 ± 4 µM; on h-r TM7 URAT1 chimera (h-r TM7, HEPES pH 7.3, 100 μM 14C-uric acid) it was 254 ± 47 µM. For the same molecule, the IC50 came to 87 ± 25 µM in experiment [2]; 100 ± 15 µM against h-r TM11 URAT1 chimera (h-r TM11, HEPES pH 7.3, 100 μM 14C-uric acid); 49 ± 11 µM on h-r TM10 URAT1 chimera; 37 ± 9 µM on h-r TM5-N URAT1 chimera; 30 ± 4 µM on h-r TM6 URAT1 chimera; 30 ± 3.4 µM in experiment [3]. The IC50 is 118 ± 8.1 µM in experiment [4] (h-I481M, HEPES pH 7.3, 100 μM 14C-uric acid); 53 ± 6 µM in experiment [5] (h-M25V, HEPES pH 7.3, 100 μM 14C-uric acid); 21 ± 4.7 µM in experiment [6]; 29 ± 3.2 µM in experiment [7]; 3 µM and 3.4 µM in [8]; 67 ± 15 µM against h-r IC3 URAT1 chimera. For the same molecule, the “fold reduced affinity of h-r TM7 compared to hURAT1” value on h-r TM7 URAT1 chimera (from IC50 values) was 8 fold. Further, on h-r TM11 URAT1 chimera (from IC50 values), the “fold reduced affinity of h-r TM11 compared to hURAT1” value is listed as 3 fold. In [4] (from IC50 values), the “fold reduced affinity of h-I481M compared to hURAT1” value came out at 4 fold. Moreover, the “fold reduced affinity of h-M25V compared to hURAT1” value in [5] (from IC50 values) is listed as 1.7 fold.
